How the values were obtained:
Recombinant human p38α = biological target: T1, Recombinant human p38α (Homo sapiens, UniProt Q16539); assay: HTRF Assay: Time-Resolved Fluorescence Resonance Energy Transfer Kinase Assay; type: biochemical; settings: TR-FRET; MKK6-activated p38α 100 pM, biotinylated-GST-ATF2 substrate
T1 construct: His; made in house
Description: Time-Resolved Fluorescence Resonance Energy Transfer Kinase Assay
Recombinant human p38α was expressed as a His-tagged protein. To activate this protein, 3 μM unactivated p38α was incubated in 200 mM Hepes pH7.4, 625 mM NaCl, 1 mM DTT with 27 nM active MKK6 (Upstate), 1 mM ATP and 10 mM MgCl2. The activity of the MKK6-activated p38α was assessed using a time-resolved fluorescence resonance energy transfer (TR-FRET) assay.
Biotinylated-GST-ATF2 (residues 19-96, 400 nM final), ATP ([…] final) and MgCl2 (5 mM final) in assay buffer (40 mM HEPES pH 7.4, 1 mM DTT) were added to wells containing […] of various concentrations of compound or DMSO vehicle (3% final) in NUNC 384 well black plate. The reaction was initiated by the addition of MKK6-activated p38 (100 pM final) to give a total volume of 30 μl. Alternatively, various concentrations of compound were incubated with activated p38 for up to 90 min, followed by initiation with the addition of ATF2, ATP and MgCl2. The reaction was incubated for 120 minutes at room temperature, then terminated by the addition of 15 μl of 100 mM EDTA pH 7.4. Detection reagent (15 μl) in buffer (100 mM HEPES pH 7.4, 150 mM NaCl, 0.1% w/v BSA, 1 mM DTT) containing antiphosphothreonine-ATF2-71 polyclonal antibody (Cell Signalling Technology, Beverly Mass., USA) labelled with W-1024 europium chelate (Wallac OY, Turku, Finland), and APC-labelled streptavidin (Prozyme, San Leandro, Calif., USA) was added and the reaction was further incubated for 60 minutes at room temperature. The degree of phosphorylation of GST-ATF2 was measured using a Packard Discovery plate reader (Perkin-Elmer Life Sciences, Pangbourne, UK) as a ratio of specific 665 nm energy transfer signal to reference europium 620 nm signal. Differences in IC50 with or without preincubation of enzyme with compound was interpreted as time-dependence.

p38 = p38 (Homo sapiens, UniProt Q16539); assay: Fluorescence Anisotropy Kinase Binding Assay; settings: p38 enzyme 12 nM, fluorescent ligand 5 nM
Description: Fluorescence Anisotropy Kinase Binding Assay
The concentration of kinase enzyme should preferably be ≧1×Kf. The concentration of fluorescent ligand required will depend on the instrumentation used, and the fluorescent and physicochemical properties. The concentration used must be lower than the concentration of kinase enzyme, and preferably less than half the kinase enzyme concentration. A typical protocol is:
All components dissolved in Buffer of final composition 62.5 mM HEPES, pH 7.5, 1.25 mM CHAPS, 1.25 mM DTT, 12.5 mM MgCl2 3.3% DMSO.
p38 Enzyme concentration: 12 nM
Fluorescent ligand concentration: 5 nM
Test compound concentration: 0.1 nM-100 uM
Components incubated in 30 ul final volume in NUNC 384 well black microtitre plate until equilibrium reached (5-30 mins)
Fluorescence anisotropy read in LJL Acquest.
Definitions: Ki=dissociation constant for inhibitor binding
• Kf=dissociation constant for fluorescent ligand binding
The fluorescent ligand is the following compound: [drawing 22] which is derived from 5-[2-(4-aminomethylphenyl)-5-pyridin-4-yl-1H-imidazol-4-yl]-2-chlorophenol and rhodamine green. Results

[1] = test system: TGF-β-induced increases in fibronectin and thrombospondin; settings: literature, Laping et al., 2002; cited from earlier work

T1 sequence (Q16539 whole entry): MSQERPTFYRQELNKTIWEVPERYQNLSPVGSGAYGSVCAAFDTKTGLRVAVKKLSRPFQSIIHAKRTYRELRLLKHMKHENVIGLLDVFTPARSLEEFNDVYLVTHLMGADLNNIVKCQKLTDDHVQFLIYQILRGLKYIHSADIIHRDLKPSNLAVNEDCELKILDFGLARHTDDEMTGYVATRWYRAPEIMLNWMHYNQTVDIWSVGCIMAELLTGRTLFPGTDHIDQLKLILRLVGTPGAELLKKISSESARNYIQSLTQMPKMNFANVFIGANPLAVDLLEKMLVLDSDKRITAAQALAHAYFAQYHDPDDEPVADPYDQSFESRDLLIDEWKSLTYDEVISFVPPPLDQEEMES
Chain of p38 (Q16539 whole entry): as above

Row | Structure (SMILES) | IC50 (Recombinant human p38α) | melting point | IC50 (p38) | inhibition of TGF-β-induced increases in fibronectin and thrombospondin [1]
1 | Cc1c(F)cc(C(=O)N[C@H](C)C(C)C)cc1-c1ccc(C(=O)NCC(C)(C)C)cc1C(=O)Nc1nccs1 [Example 13, N^3′-[(1R)-1,2-dimethylpropyl]-N4-(2,2-dimethylpropyl)-5′-fluoro-6′-methyl-N^2-1,3-thiazol-2-yl-2,3′,4-biphenyltricarboxamide] | > 1.58 µM | 240 to 244 °C | > 1.58 µM | –
2 | Cc1c(F)cc(C(=O)N[C@H](C)CO)cc1-c1ccc(C(=O)NCC(C)(C)C)cc1C(N)=O [Example 75, N^4-(2,2-dimethylpropyl)-5′-fluoro-N^3′-[(1R)-2-hydroxy-1-methylethyl]-6′-methyl-2,3′,4-biphenyltricarboxamide] | > 1.58 µM | – | > 15.8 µM | –
3 | Cc1c(F)cc(C(=O)N[C@H](C)C(C)(C)C)cc1-c1ccc(C(=O)NCC(C)(C)C)cc1C(=O)Nc1nccs1 [Example 10, N^4-(2,2-dimethylpropyl)-5′-fluoro-6′-methyl-N^2-1,3-thiazol-2-yl-N^3′-[(1R)-1,2,2-trimethylpropyl]-2,3′,4-biphenyltricarboxamide] | > 1.58 µM | > 125 °C (dec.) | > 1.58 µM | –
4 | COc1nccc(-c2c(-c3ccc(F)cc3)ncn2C2CCNCC2)n1 [SB-242235] | – | – | – | inhibited
5 | Cc1c(F)cc(C(=O)NCC(C)C)cc1-c1ccc(C(=O)NCC(C)(C)C)cc1C(=O)Nc1nccs1 [Example 14, N^4-(2,2-dimethylpropyl)-5′-fluoro-6′-methyl-N^3′-(2-methylpropyl)-N^2-1,3-thiazol-2-yl-2,3′,4-biphenyltricarboxamide] | – | > 194 °C (dec.) | – | –
6 | Cc1ccc(C(=O)NCCO)cc1-c1ccc(C(=O)NCC(C)(C)C)cc1C(=O)O [Example 86, 4-{[(2,2-dimethylpropyl)amino]carbonyl}-5′-{[(2-hydroxyethyl)amino]carbonyl}-2′-methyl-2-biphenylcarboxylic acid] | > 25.1 µM | – | > 15.8 µM | –
7 | Cc1c(F)cc(C(=O)NCCC(C)C)cc1-c1ccc(C(=O)NCC(C)(C)C)cc1C(=O)Nc1nccs1 [Example 16, N^4-(2,2-dimethylpropyl)-5′-fluoro-6′-methyl-N^3′-(3-methylbutyl)-N^2-1,3-thiazol-2-yl-2,3′,4-biphenyltricarboxamide] | – | 159 to 164 °C | – | –
8 | Cc1c(F)cc(C(=O)N[C@@H](C)C(C)(C)C)cc1-c1ccc(C(=O)NCC(C)(C)C)cc1C(=O)Nc1nccs1 [Example 25, N^4-(2,2-dimethylpropyl)-5′-fluoro-6′-methyl-N^2-1,3-thiazol-2-yl-N^3′-[(1S)-1,2,2-trimethylpropyl]-2,3′,4-biphenyltricarboxamide] | > 1.58 µM | 160 to 165 °C | > 1.58 µM | –
9 | Cc1c(F)cc(C(=O)NCC2CC2)cc1-c1ccc(C(=O)NCC(C)(C)C)cc1C(=O)Nc1nccs1 [Example 15, N^3′-(cyclopropylmethyl)-N^4-(2,2-dimethylpropyl)-5′-fluoro-6′-methyl-N^2-1,3-thiazol-2-yl-2,3′,4-biphenyltricarboxamide] | – | 179 to 183 °C | – | –
10 | Cc1c(F)cc(C(=O)N[C@@H](C)C(C)C)cc1-c1ccc(C(=O)NCC(C)(C)C)cc1C(=O)Nc1nccs1 [Example 12, N^3′-[(1S)-1,2-dimethylpropyl]-N^4-(2,2-dimethylpropyl)-5′-fluoro-6′-methyl-N^2-1,3-thiazol-2-yl-2,3′,4-biphenyltricarboxamide] | > 1.58 µM | 234 to 239 °C | > 1.58 µM | –
11 | COC(=O)c1cc(C(=O)NCC(C)(C)C)ccc1-c1cc(C(=O)NCCO)ccc1C [Example 78, methyl 4-{[(2,2-dimethylpropyl)amino]carbonyl}-5′-{[(2-hydroxyethyl)amino]carbonyl}-2′-methyl-2-biphenylcarboxylate] | – | – | > 15.8 µM | –
